Measured values from patent US11358940B2, “K-Ras modulators” (THE REGENTS OF THE UNIVERSITY OF CALIFORNIA, priority 2017, dated 2022).

Assays:
KRas H95C (1-169) = molecular target: T1, KRas H95C (1-169) (Homo sapiens, UniProt P01116, H95C); test: MALDI-TOF analysis of KRas H95C reacted with compound; assay type: binding; details: reacted for 24 h
T1 construct: we generated Kras4b H95C (1-169) mutant protein; made in house
Text: Next, we reacted all three epoxides synthesized (structures depicted in FIG. 10A) with KRas H95C (1-169) to investigate reactivity at that site.
Single enantiomers of FNL-0012, compounds […] and FNL-0044 (R), then corresponding single enantiomers of FNL-0030, compounds FNL-0043 (S) and FNL-0045 (R), were synthesized (FIG. 14A). These enantiomers were investigated using a MALDI-TOF MS screen using KRAS4b (1-169) H95C, and also cell-based assays.

[1] = tested on: HupT4 pancreas carcinoma cells; test: Growth arrest in HupT4 cells; assay type: cell-based; details: 24 h
Procedure: (§1) Cell viability in the presence of compounds (discussed in examples above) was measured using CellTiter-Glo (Promega). Cells were plated in black-walled 384-well plates (Greiner, 781091) at densities in accordance with their doubling time (for MEFs typically 1,000 cells/well in 20 μl), using the Multidrop Combi Reagent Dispenser (Thermo). They were then incubated overnight at 37° C. in a humidified atmosphere of 5% CO2 prior to compound addition.
(§2) Compound and dimethylsulfoxide (DMSO) addition to microplates was performed using the Access Laboratory Workstation (Labcyte) and Echo 555 (Labcyte) liquid handler. Source plates with compounds and DMSO were prepared and the Echo 555 was used to transfer 50 nL of compound, DMSO, or both to the appropriate wells. […] of complete culture medium was added to all wells of the microplate after compound addition. The highest final concentration in each assay was 100 μM or 50 μM with between seven to 12 dilutions. The final DMSO concentration in all wells was 0.2%.
[…] All conditions were done in triplicates and experiments performed at least thrice. Cellular ATP levels (an indicator of cell count) were determined with CellTiter-Glo (CTG, Promega G7573) luminescence assay, using an EnVision Plate Reader (PerkinElmer).
Plates were harvested at two time points. […] Growth inhibition was calculated by: […]

[2] = molecular target: farnesylated and carboxymethylated KRas (FMe-KRas) (Homo sapiens, UniProt P01116); test: MALDI-TOF analysis of labeling of fully processed KRas; assay type: binding
[3] = tested on: KRAS4b G12D, KRAS4b G12V, HRas WT/P53-, and SUIT-2; test: Cell proliferation experiments with analogues of FNL-0045; assay type: cell-based; details: FIG. 15B
Procedure: as §1
as §2, with “The highest final concentration in each assay was 100 μM or 50 μM with between seven to 12 dilutions. The final DMSO concentration in all wells was 0.2%.” left out
Cells were incubated with compounds for 72 h. […] Cellular ATP levels (an indicator of cell count) were determined with CellTiter-Glo (CTG, Promega G7573) luminescence assay, using an EnVision Plate Reader (PerkinElmer).
Plates were harvested at two time points. […] After 72 h incubation, the compound treated plates were harvested using CTG reagent and luminescence read using the EnVision giving control growth (C) and compound treated well (T72) measurements. Growth inhibition was calculated by: […]

H95 site of KRas = H95 site of KRas (Homo sapiens, UniProt P01116, H95C); test: Thermal melting analysis; assay type: binding; details: FIG. 3
[4] = molecular target: T2, Kras4b H95C (1-169) mutant protein (GppNHp-loaded) (Homo sapiens, UniProt P01116, H95C); test: Disulfide tethering screen, dose response; assay type: binding; details: FIG. 2
T2 construct: we generated Kras4b H95C (1-169) mutant protein; made in house
Text: Disulfide tethering is a site-directed fragment-based approach to drug-discovery, which allows the screening low-affinity disulfide containing fragments against a native or introduced cysteine residue of a target protein. Fragment binding is reversible, and can be tuned to favor detection of only the strongest bound fragments through the use of increasing concentrations of a reductant (typically β-mecaptoethanol). This binding is not purely driven by reactivity; it is influenced by protein/ligand interactions and is independent of pKa or surface exposure. Bound fragments are detected by mass spectrometry and provide a lead into the drug discovery process.
To target H95 specifically, we generated Kras4b H95C (1-169) mutant protein, and used it (GppNHp-loaded), to search for compounds that could bind to active KRas in close proximity to H95. We performed a tethering screen of a disulfide containing fragment library at the University of California San Francisco.

T2 sequence (P01116 1-169 isoform P01116-2 H95C): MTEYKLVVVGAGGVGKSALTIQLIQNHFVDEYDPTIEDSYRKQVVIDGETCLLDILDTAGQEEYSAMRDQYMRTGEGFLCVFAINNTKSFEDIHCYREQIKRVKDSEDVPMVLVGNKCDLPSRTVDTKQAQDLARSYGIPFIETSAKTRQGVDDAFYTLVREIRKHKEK
Sequence of H95 site of KRas (P01116 1-188 isoform P01116-2 H95C): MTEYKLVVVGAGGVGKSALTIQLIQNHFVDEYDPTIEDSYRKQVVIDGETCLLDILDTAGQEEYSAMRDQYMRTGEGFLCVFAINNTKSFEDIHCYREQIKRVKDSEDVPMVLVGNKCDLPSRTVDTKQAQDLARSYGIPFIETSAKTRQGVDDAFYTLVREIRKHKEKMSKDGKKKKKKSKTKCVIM
T1 sequence (P01116 1-169 isoform P01116-2 H95C): as the sequence (P01116 1-169 isoform P01116-2 H95C) above
Sequence of farnesylated and carboxymethylated KRas (FMe-KRas) (P01116 2-185 isoform P01116-2 limits assumed): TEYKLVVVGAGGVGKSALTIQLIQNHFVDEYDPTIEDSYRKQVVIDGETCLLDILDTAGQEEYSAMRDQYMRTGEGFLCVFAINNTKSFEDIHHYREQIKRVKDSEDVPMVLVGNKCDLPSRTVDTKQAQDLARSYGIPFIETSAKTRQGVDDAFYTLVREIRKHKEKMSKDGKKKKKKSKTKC

Compound	shift in Tm upon fragment binding (H95 site of KRas)	binding at H95 site of KRas in dose response experiments [4]	other results
O=C(Cc1ccc(Cl)c(Cl)c1)NCC1CO1 (stereo not shown) [FNL-0010]	–	–	covalent modification of C95 (KRas H95C (1-169)): covalently labeled C95; growth arrest / cell proliferation [1]: did not affect cell proliferation; covalent labeling of FMe-KRas [2]: did not label
Cn1nc(C(=O)NCc2cn(C[C@@H]3CO3)nn2)c2ccccc21 [FNL-0088]	–	–	proliferation assay, R enantiomer compared with S enantiomer FNL-0090 [3]: compared favorably
CN(C)CCSSCCNC(=O)Cc1ccc(Cl)c(Cl)c1 [compound 917105]	significant shifts in Tm	strong binders	–
Cc1ccc(S(=O)(=O)c2cn(CCSSCCN(C)C)nn2)cc1 [compound 966844]	significant shifts in Tm	strong binders	–
CN(C)CCSSCCn1cc(CNC(=O)c2n[nH]c3ccccc23)nn1 [compound 966854]	significant shifts in Tm	strong binders	–
